According to patent US12553889B2, “Small molecules targeting the intrinsically disordered structural ensemble of α-synuclein protect against diverse α-synuclein mediated dysfunctions” (The Regents of the University of California, priority 2019, dated 2026):
Entries after “also recorded” stand apart in the source; their conditions may differ.

Legend:
αSyn = αSyn (Homo sapiens, UniProt P37840); test: αSyn fibrillization assay (Thioflavin T fluorescence); format: biochemical; design: made in house; host or cells: E. coli BL21(DE3), pET-21d; settings: for impact on αSyn fibrillization (thioflavin fluorescence signal): compound at 300 μM, 70 μM αSyn, vs 0.5% DMSO control
Experimental: Fibrillization assays. Prior to each aggregation assay, purified αSyn at 5 mg/mL was treated with 6M guanidine and dialyzed 36 hours in a 3500 MW cutoff Slide-A-lyzer with three changes of 20 mM sodium phosphate and 100 mM NaCl pH 7.4 buffer. αSyn was centrifuged at 130,000 g for 40 minutes in a Beckman Ultracentrifuge to remove seeding species and supernatant used for assays. For initial testing, 60 mM compound in DMSO was diluted to 300 μM in 0.5% DMSO and controls contained equivalent DMSO concentrations. Assay samples contained 20 μM Thioflavin T, filtered through a 0.45 μm Acrodisc filter prior to each assay, 70 μM αSyn in 20 mM sodium phosphate and 100 mM NaCl pH 7.4. One teflon bead, (0.125″ PTFE, Grade 2 polished) was placed in each well of a 96 well black with clear bottom assay plate (Corning) in a total volume of 500 μL. The plate was sealed with Mylar and parafilm, placed at 37° C. in a Tecan F200Pro Plate Reader and shaken at an amplitude of 6 mm for 120 hours continuously except for a brief time during reading of the plate. Thioflavin T fluorescence was detected by excitation at 440 nm and reading emissions at 485 nm each 60 minutes throughout the assay. To generate αSyn seeds for the seeding assays, αSyn at 10 mg/mL was incubated with stirring at 43° C. for 24 hours followed by exhaustive sonication. 1% (by mass) of seeds were added to the fibrillization assay. Samples were plated in quadruplicate, and the replicates averaged for each experiment for plotted data. Data were analyzed in Excel using XL-fit sigmoidal model #600 and when normalized, comparing fluorescence values at 50 hours for compounds as a percentage of DMSO control.
α-Syn for the Fibrillization assay. Wildtype human αSyn was produced from a pET-21d plasmid (Millipore, Burlington, MA) in E. coli BL21(DE3) cells induced by addition of 1 mM […] and incubated at 16° C. overnight. Cells were harvested by centrifugation at 4,000×g for 10 minutes and stored at −80° C. Frozen cells expressing αSyn protein were resuspended in 50 mM Tris, pH 7.5, 1 mM TCEP, 1 mM EDTA, and 1 mM L-Methionine and lysed using a microfluidizer. Lysate was centrifuged at 7000×g for 0.5 hours at 21° C. The supernatant was boiled in a water bath for 15 minutes, cooled on ice and centrifuged at 45,000 g for 30 min. The supernatant was filtered through a 0.2 μm Corning filter and subjected to ion exchange chromatography using a Capto ImpRes Q (GE Healthcare, Upssala, Sweden) anion exchange (IEX) column at ambient temperature. The column was eluted with a gradient of 100 column volumes from 0 to 1M NaCl using an AKTA Explorer 100 Liquid Chromatography System (GE Healthcare, Uppsala, Sweden). Pure αSyn fractions were desalted to 50 mM KPO4, pH 7.5 and 50 mM NaCl using PD-10 columns (GE Healthcare, Chicago, IL) and concentrated to 5 mg/mL or 10 mg/ml (3K MWCO, Amicon Ultra, Millipore, Burlington, MA).
Statistical Analysis of compound activity in Fibrillization assays. For the analyses of compound activity in the αSyn fibrillization assay, the relative fluorescence unit (RFU) data obtained from compounds were compared to those of DMSO, to identify those that are statistically different from DMSO at various time points. Each experiment contained 4 replicates of each compound and of DMSO control. […] A repeated measures analysis of variance was performed on logarithmic transformed data using a linear mixed effects model which included Compound, Time, Replicate (Compound) and Compound*Time. The covariance structure across time that minimized the corrected Akaike Information Criterion (AICC) was used and the Kenward and Roger method was used to determine the appropriate degrees of freedom. Each compound mean was compared to the DMSO mean using Bonferroni multiplicity adjusted t-tests. Statistical analyses were conducted using the MIXED procedure in SAS 9.1 (SAS Institute Inc. Cary, NC, USA). Statistical significance refers to p-value<0.05.

[1] = test system: primary rat embryonic midbrain neurons; test: Toxicity to primary midbrain dopaminergic neurons; format: cell-based; settings: compound alone, 60 μM
Experimental: Primary midbrain cultures were prepared and dopaminergic neuronal viability in the presence and absence of αSyn was assessed as previously described and repeated herein. Primary midbrain cultures were prepared from embryonic day 17 embryos of Sprague-Dawley rats using methods reviewed and approved by the Purdue Animal Care and Use Committee as described previously. After dissection, the cells were plated into a poly-L-lysine-treated 48-well plate at a density of 163,500 cells per well. Four days later, the cells were treated with cytosine arabinofuranoside (AraC) (20 μM) for 48 hours to inhibit the growth of glial cells. The cultures were used for measurements of dopaminergic neuron viability at 7 days in vitro. […] In order to determine the viability of dopaminergic neurons, MAP2- and TH-positive neurons were counted in 10 to 15 randomly chosen observation fields in a blinded manner using a Nikon TE2000-U inverted fluorescence microscope (Nikon Instruments, Melville NY) with a 20× objective. In the control conditions, and in conditions where the compound was neuroprotective, typically 500 to 1,300 MAP2-positive neurons were counted, a range that corresponds to 20 to 50 TH-positive neurons. The data were expressed as the ratio of the TH-positive neurons to the MAP2-positive neurons. […]

Structure (SMILES) | impact on αSyn fibrillization (thioflavin fluorescence signal) (αSyn) | toxic effect on primary dopaminergic neurons [1] | inhibition of aggregation when used as control (αSyn; over 30 synuclein fibrillization experiments)
Cc1c(-c2csc(NC(C(N)=O)C3CCNCC3)n2)sc2ccccc12 (centres unmarked) [Compound 573437, 2-((4-(3-methylbenzo[b]thiophen-2-yl)thiazol-2-yl)amino)-2-(piperidin-4-yl)acetamide] | missed by the more variable αSyn fibrillization assay |  | 
CNC(=O)c1cc(O)ccc1N [Compound 576755, 2-amino-5-hydroxy-N-methylbenzamide] | inhibit fibrillization; also recorded: impair fibrillization | no detectable toxic effect; also recorded: not toxic | robust inhibition of aggregation in all assays
CNC(=O)CN(C(=O)Cc1noc2ccccc12)C(C)c1ccc(Cl)cc1 (centres unmarked) [Compound 582032, 2-(benzo[d]isoxazol-3-yl)-N-(1-(4-chlorophenyl)ethyl)-N-(2-(methylamino)-2-oxoethyl)acetamide] | inhibit fibrillization; also recorded: impair fibrillization |  | 
